Among the data in US10450297B2, “Sulfonyl amide derivatives for the treatment of abnormal cell growth” (Pfizer, Inc., priority 2007, dated 2019) are IC50 values, retold here.

By IC50 is commonly meant the point on the concentration scale where inhibition reaches its midpoint.

Where a name gives a salt, the structure may show the parent alone.

In this test the target is FAK kinase (catalytic construct FAK(410-689)) (Homo sapiens (Human), UniProt Q05397). Kind of test: FAKcd kinase ELISA (inhibition of poly-glu-tyr phosphorylation by FAK(410-689)). Format: biochemical. Particulars: 50 μM final ATP. In general terms: In an ELISA, binding on a coated surface is turned into a signal by an enzyme label.
Chain of FAK kinase (catalytic construct FAK(410-689)) (Q05397 410-689): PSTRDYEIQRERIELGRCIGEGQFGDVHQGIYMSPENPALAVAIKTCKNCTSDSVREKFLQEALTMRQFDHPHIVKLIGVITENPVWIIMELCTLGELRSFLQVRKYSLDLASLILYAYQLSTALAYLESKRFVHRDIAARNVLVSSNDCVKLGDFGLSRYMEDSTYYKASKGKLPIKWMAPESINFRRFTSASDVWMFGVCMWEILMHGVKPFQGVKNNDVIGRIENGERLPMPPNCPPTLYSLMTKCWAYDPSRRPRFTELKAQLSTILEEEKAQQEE
For `CN(c1cccnc1CNc1nc(Nc2ccc(F)c(C(N)=O)c2)ncc1C(F)(F)F)S(C)(=O)=O` [Compound 381, 2-fluoro-5-({4-[({3-[methyl(methylsulfonyl)amino]pyridin-2-yl}methyl)amino]-5-(trifluoromethyl)pyrimidin-2-yl}amino)benzamide], the concentration for half-maximal inhibition (IC50) was 4.55 nM.

Consider `CN(c1ncccc1CNc1nc(Nc2cccc(CN)c2)ncc1C(F)(F)F)S(C)(=O)=O` [Compound 214, N-[3-({[2-{[3-(aminomethyl)phenyl]amino}-5-(trifluoromethyl)pyrimidin-4-yl]amino}methyl)pyridin-2-yl]-N-methylmethane-sulfonamide], for which the IC50 was found to be 0.7 nM.

`CC(=O)N1CCC(Nc2ncc(C(F)(F)F)c(NCc3cccnc3N(C)S(C)(=O)=O)n2)CC1` [Compound 45, N-{3-[({2-[(1-acetylpiperidin-4-yl)amino]-5-(trifluoromethyl)pyrimidin-4-yl}amino)methyl)pyridin-2-yl}-N-methylmethane-sulfonamide] showed a concentration for half-maximal inhibition (IC50) of 188 nM.

In turn, `CN(c1ncccc1CNc1nc(Nc2ccc(C(=O)NCC3CC3)cc2)ncc1C(F)(F)F)S(C)(=O)=O` [Compound 252, N-(cyclopropylmethyl)-4-({4-[({2-[methyl(methylsulfonyl)amino}pyridin-3-yl}methyl)amino]-5-(trifluoromethyl)pyrimidin-2-yl}amino)benzamide] had a 50% inhibitory concentration (IC50) of 1.48 nM.

In turn, `CN(c1ncccc1CNc1nc(Nc2ccc(C(N)=O)c(F)c2)ncc1C(F)(F)F)S(C)(=O)=O` [Example 13, 2-fluoro-4-({4-[({2-[methyl(methylsulfonyl)amino]pyridin-3-yl}methyl)amino]-5-(trifluoromethyl)pyrimidin-2-yl}amino)benzamide formic acid salt] registered an IC50 of less than 0.595 nM.

Compound `CCOC(=O)Cc1ccc(Nc2ncc(C(F)(F)F)c(NCc3cccnc3N(C)S(C)(=O)=O)n2)cc1` [Compound 98, ethyl [4-({4-[({2-[methyl(methylsulfonyl)amino]pyridin-3-yl}methyl)amino]-5-(trifluoromethyl)pyrimidin-2-yl}amino)phenyl]acetate] returned an IC50 of 0.59 nM.

`CN(c1ncccc1CNc1nc(Nc2cc(C(N)=O)ccc2F)ncc1C(F)(F)F)S(C)(=O)=O` [Compound 375, 4-fluoro-3-({4-[({2-[methyl(methylsulfonyl)amino]pyridin-3-yl}methyl)amino]-5-(trifluoromethyl)pyrimidin-2-yl)amino)benzamide]: the IC50 amounted to 6.29 nM.

As for `CN(c1ncccc1CNc1nc(Nc2cccc(CNS(=O)(=O)C(F)(F)F)c2)ncc1C(F)(F)F)S(C)(=O)=O` [Compound 303, 1,1,1-trifluoro-N-[3-({4-[({2-[methyl(methylsulfonyl)amino]pyridin-3-yl}methyl)amino]-5-(trifluoromethyl)pyrimidin-2-yl}amino)benzyl]methanesulfonamide], half-maximal inhibition (IC50) was put at 0.727 nM.

Take `CC(=O)c1ccc(Nc2ncc(C(F)(F)F)c(NCc3cccnc3N(C)S(C)(=O)=O)n2)cc1` [Compound 311, N-{3-[({2-[(4-acetylphenyl)amino]-5-(trifluoromethyl)pyrimidin-4-yl}amino)methyl]pyridin-2-yl}-N-methylmethane-sulfonamide]: the midpoint of inhibition, the IC50, lay at 1 nM.

In the case of `CN(c1ncccc1CNc1nc(Nc2ccc(S(C)(=O)=O)nc2)ncc1C(F)(F)F)S(C)(=O)=O` [Compound 23, N-methyl-N-[3-({[2-{[6-(methylsulfonyl)pyridin-3-yl]amino}-5-(trifluoromethyl)pyrimidin-4-yl]amino}methyl)pyridin-2-yl]methanesulfonamide], inhibition was half-maximal at 68.6 nM (IC50).

`Cc1cccc(CNc2nc(Nc3ccc(C(N)=O)cc3)ncc2C(F)(F)F)c1N(C)S(C)(=O)=O` [Compound 108, 4-{[4-({3-methyl-2-[methyl(methylsulfonyl)amino]benzyl}amino)-5-(trifluoromethyl)pyrimidin-2-yl]amino}benzamide] had a half-inhibitory concentration (IC50) of 0.6 nM.

In turn, `Cc1cc(Nc2ncc(C(F)(F)F)c(NCc3cccnc3N(C)S(C)(=O)=O)n2)on1` [Compound 289, N-methyl-N-{3-[({2-[(3-methylisoxazol-5-yl)amino)-5-(trifluoromethyl)pyrimidin-4-yl}amino)methyl]pyridin-2-yl}methanesulfonamide] gave a half-maximal inhibitory concentration (IC50) of 18.2 nM.

Turning to `CN(c1ncccc1CNc1nc(Nc2cccc(C(=O)O)c2)ncc1C(F)(F)F)S(C)(=O)=O` [Example 10, 3-({4-[({2-[methyl(methylsulfonyl)amino]pyridin-3-yl}methyl)amino]-5-(trifluoromethyl)pyrimidin-2-yl}amino)benzoic acid trifluoroacetic acid salt], the IC50 came to 0.6 nM.

`CC[C@H](CO)NC(=O)c1cccc(Nc2ncc(C(F)(F)F)c(NCc3cccnc3N(C)S(C)(=O)=O)n2)c1` [Compound 169, N-[(1R)-1-(hydroxymethyl)propyl]-3-({4-(({2-[methyl(methylsulfonyl)amino]pyridin-3-yl}methyl)amino]-5-(trifluoromethyl)pyrimidin-2-yl}amino)benzamide] displayed an IC50 of 2.47 nM.

On to `CN(c1ncccc1CNc1nc(Nc2ccc(C(=O)OC(C)(C)C)cc2)ncc1C(F)(F)F)S(C)(=O)=O` [Compound 219, tert-butyl 4-({4-[({2-[methyl(methylsulfonyl)amino]pyridin-3-yl}methyl)amino]-5-(trifluoromethyl)pyrimidin-2-yl}amino)benzoate], for which the IC50 was found to be 0.6 nM.

Consider `CC(=O)Nc1cccc(Nc2ncc(C(F)(F)F)c(NCc3nccnc3N(C)S(C)(=O)=O)n2)c1` [Compound 385, N-[3-({4-[({3-[methyl(methylsulfonyl)amino]pyrazin-2-yl}methyl)amino]-5-(trifluoromethyl)pyrimidin-2-yl}amino)phenyl]acetamide], for which half-maximal inhibition (IC50) was put at 1.44 nM.

For the compound `CN(C)C(=O)c1ccc(Nc2ncc(C(F)(F)F)c(NCc3ccccc3N(C)S(C)(=O)=O)n2)cc1` [Compound 224, N,N-dimethyl-4-{[4-({2-[methyl(methylsulfonyl)amino]benzyl}amino)-5-(trifluoromethyl)pyrimidin-2-yl]amino}benzamide], it took 0.6 nM to reach half-maximal inhibition (IC50).

In the case of `CN(c1ncccc1CNc1nc(Nc2ccc(C(N)=O)cc2)ncc1C(F)(F)F)S(C)(=O)=O` [Compound 19, 4-({4-[({2-[methyl(methylsulfonyl)amino]pyridin-3-yl}methyl)amino]-5-(trifluoromethyl)pyrimidin-2-yl}amino)benzamide], the IC50 was found to be 3.4 nM.

Consider `CC(N)c1ccc(Nc2ncc(C(F)(F)F)c(NCc3nccnc3N(C)S(C)(=O)=O)n2)cc1` (stereo in doubt) [Compound 351, N-[3-({[2-({4-[(1R)-1-aminoethyl]phenyl}amino)-5-(trifluoromethyl)pyrimidin-4-yl]amino}methyl)pyrazin-2-yl]-N-methylmethane-sulfonamide], for which the half-maximal inhibitory concentration (IC50) was 0.616 nM.

As for `Cc1ccc(CNc2nc(Nc3ccc(S(C)(=O)=O)nc3)ncc2C(F)(F)F)c(N(C)S(C)(=O)=O)n1` [Compound 25, N-methyl-N-[6-methyl-3-({[2-{[6-(methylsulfonyl)pyridin-3-yl]amino}-5-(trifluoromethyl)pyrimidin-4-yl]amino}methyl)pyridin-2-yl]methanesulfonamide], the midpoint of inhibition, the IC50, lay at 12.9 nM.

As for `CN(c1ncccc1CNc1nc(Nc2ccc(/C(N)=N/O)cc2)ncc1C(F)(F)F)S(C)(=O)=O` [Compound 407, N′-hydroxy-4-({4-[({2-[methyl(methylsulfonyl)amino]pyridin-3-yl}methyl)amino]-5-(trifluoromethyl)pyrimidin-2-yl}amino)benzenecarboximidamide], the IC50 was less than 0.595 nM.

For `CN(c1ncccc1CNc1nc(Nc2cccc(C(=O)NC3CCC3)c2)ncc1C(F)(F)F)S(C)(=O)=O` [Compound 185, N-cyclobutyl-3-({4-[({2-[methyl(methylsulfonyl)amino]pyridin-3-yl}methyl)amino]-5-(trifluoromethyl)pyrimidin-2-yl}amino)benzamide], the 50% inhibitory concentration (IC50) turned out to be 2.17 nM.

Take `COCCNC(=O)c1ccc(Nc2ncc(C(F)(F)F)c(NCc3cccnc3N(C)S(C)(=O)=O)n2)cc1` [Compound 276, N-(2-methoxyethyl)-4-({4-[({2-[methyl(methylsulfonyl)amino]pyridin-3-yl}methyl)amino]-5-(trifluoromethyl)pyrimidin-2-yl}amino)benzamide]: the IC50 is 0.6 nM.

In the case of `Cc1cc(Nc2ncc(C(F)(F)F)c(NCc3cccc(N(C)S(C)(=O)=O)c3)n2)ccc1C(N)=O` [Compound 340, 2-methyl-4-{[4-({3-[methyl(methylsulfonyl)amino]benzyl}amino)-5-(trifluoromethyl)pyrimidin-2-yl]amino}benzamide], the IC50 was less than 0.595 nM.

For `CN(CC1CC1)C(=O)c1ccc(Nc2ncc(C(F)(F)F)c(NCc3cccnc3N(C)S(C)(=O)=O)n2)cc1` [Compound 243], the IC50 amounted to 2.1 nM.

`CN(c1ncccc1CNc1nc(Nc2cccc(C(=O)NC3CCNCC3)c2)ncc1C(F)(F)F)S(C)(=O)=O` [Compound 361, 3-({4-[({2-[methyl(methylsulfonyl)amino]pyridin-3-yl}methyl)amino]-5-(trifluoromethyl)pyrimidin-2-yl}amino)-N-piperidin-4-ylbenzamide]: it took 8.7 nM to reach half-maximal inhibition (IC50).

`CS(=O)(=O)c1cccc(CNc2nc(Nc3ccc(S(N)(=O)=O)cc3)ncc2Br)c1` [Compound 35, 4-[(5-bromo-4-{[3-(methylsulfonyl)benzyl]amino}pyrimidin-2-yl)amino]benzene-sulfonamide]: the IC50 was 17.6 nM.

`CN(c1nccnc1CNc1nc(Nc2ccc(C(N)=O)c(F)c2)ncc1C(F)(F)F)S(C)(=O)=O` [Compound 327, 2-fluoro-4-({4-[({3-[methyl(methylsulfonyl)amino]pyrazin-2-yl}methyl)amino]-5-(trifluoromethyl)pyrimidin-2-yl}amino)benzamide] yielded an IC50 of 1.69 nM.

For `Cc1cc(Nc2ncc(C(F)(F)F)c(NCc3cc(N(C)S(C)(=O)=O)ccn3)n2)ccc1C(N)=O` [Compound 406, 2-methyl-4-({4-[({4-[methyl(methylsulfonyl)amino]pyridin-2-yl}methyl)amino]-5-(trifluoromethyl)pyrimidin-2-yl}amino)benzamide], the half-inhibitory concentration (IC50) was 0.784 nM.
